Data as given in patent US6943191B1, “Disubstituted lavendustin A analogs and pharmaceutical composition comprising the analogs” (The United States of America as represented by the …, priority 1998, dated 2005).
Read-outs that look alike come from different tables or passages of the source.

What was measured:
[1] = system: minimum of 12 human cancer cell lines; experiment: Hollow fiber assay in mice, point score; assay type: in vivo; settings: for Hollow Fiber Assay IP score: first number of cell; for Hollow Fiber Assay SC score: second number of cell; for IP+SC score / SC score: hollow fiber assay
Protocol: Compounds satisfying Formulas 1 and 2 also have been tested for in vivo activity in the hollow fiber assay. See Example 12 below for the procedure used for the in vivo tests. Each compound tested was tested against a minimum of 12 human cancer cell lines. Data is reported as % T/C (i.e., the […]) for each of the 2 compound doses against each of the cell lines with separate values calculated for the intraperitoneal and subcutaneous samples, with a target value for % T/C being about 50 or less.
Compounds were selected for further in vivo testing in standard subcutaneous xenograft models on the basis of several hollow fiber assay criteria. These criteria include: (1) a % T/C of 50 or less in 10 of the 48 possible test combinations (12 cell lines×2 sites×2 compound doses); (2) activity at a distance (intrapentoneal drug/subcutaneous culture) in a minimum of 4 of the 24 possible combinations; and/or (3) a net cell kill of 1 or more cell lines in either implant site. To simplify evaluation, a point system has been adopted which allows rapid assessment of a compound's activity. A value of 2 is assigned for each compound dose which results in a 50% or greater reduction in viable cell mass. The intraperitoneal and subcutaneous samples were scored separately so that criteria (1) and (2) could be evaluated. Compounds with a combined IP+SC score≧20, an SC score≧8, or a net cell kill of one or more cell lines were referred for xenograft testing. These criteria have been statistically validated by comparing the activity outcomes of greater than 80 randomly selected compounds in the hollow fiber assay and in the xenograft testing.
This example describes the method used for in vivo testing of mice. Human cancer cells were cultivated in polyvinylidene fluoride (PVDF) hollow fibers. A sample of each cancer cell line was implanted intraperitoneally and subcutaneously in mice. Each mouse received a total of 6 fibers, 3 intraperitoneally and 3 subcutaneously, representing 3 distinct cancer cell lines. Three mice were treated with compounds made according to the present invention at each of two test doses intraperitoneally using a QD×4 treatment schedule. Vehicle controls consisted of 6 mice receiving the compound diluent only The fiber cultures were collected on the day following the last treatment. Anticancer effects were assessed by determining viable cell mass for each of the coil line using a formazan dye (MTT) conversion assay. From this, the % TIC was calculated using the average optical density of the compound-treated samples divided by the average optical density of the vehicle controls. In addition, the net increase in cell mass was determined for each sample as samples of fiber cultures were assessed for viable cell mass on the day of implantation into mice. This allowed cytostatic and cytocidal capacities of these compounds to be assessed.

K562 cells = experiment: K562 cell culture and growth assay, 6 day MTT; assay type: cell-based, human; settings: K562, 6 days, 4 or more experiments
Method in brief: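 Cells (2×10^3/well) in RPMI with 10% fetal calf serum incubated with increasing compound concentrations in DMSO, with DMSO-matched controls. Growth quantitated after 6 days by MTT reduction to formazan.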

[2] = Table 8, intraperitoneal fibers
[3] = Homo sapiens, 144 h, Table 8, mean+S.E., read-out: IC50 (μM) 6 dMTT
[4] = Homo sapiens, 144 h, Table 10, mean ± S.E., read-out: IC50 (μM) 6dMTT
[5] = Table 10, mean ± S.E., read-out: IC50 (μM) 6dMTT

Structure (SMILES): CC(C)C(OC(=O)c1ccc(NCc2cc(O)ccc2O)cc1)C(C)C [COOCH[CH(CH3)2]2 / H / H]
- Hollow Fiber Assay IP score [1, 2]: 4
- Hollow Fiber Assay SC score ([1]; Table 8, subcutaneous fibers): 2
- Hollow Fiber Assay Total Ip and SC Score ([1]; Table 8): 6
- IC50 (K562 cells; [3]): 9.98 µM

Structure (SMILES): CC(C)C(OC(=O)c1ccc(NCC2=CC(=O)C=CC2=O)cc1)C(C)C [COOCH[CH(CH3)2]2 / H / 2,5-quinoyl]
- Hollow Fiber Assay IP score ([1]; Table 9, intraperitoneal fibers): 2
- Hollow Fiber Assay SC score ([1]; Table 9, subcutaneous fibers): 4
- Hollow Fiber Assay Total Ip and SC Score ([1]; Table 9): 6
- IC50 (K562 cells; Table 9, mean ± S.E., read-out: IC50 (μM) 6dMTT): 38.8 ± 12.8 µM

Structure (SMILES): O=C(OCC12CC3CC(CC(C3)C1)C2)c1ccc(NCc2cc(O)ccc2O)cc1 [Compound 7, 4′-4′-adamantylmethylbenzoate-1′-N-2,5-dihydroxybenzylamine]
- Hollow Fiber Assay IP score [1, 2]: 12
- Hollow Fiber Assay SC score ([1]; Table 8, subcutaneous fibers): 8
- Hollow Fiber Assay Total Ip and SC Score ([1]; Table 8): 20
- IP+SC score [1]: 20
- SC score [1]: 8
- IC50 (K562 cells; [3]): 12.8 µM

Structure (SMILES): COC(=O)c1ccc(C=Cc2cc(O)ccc2O)cc1 [COOCH3 / 2,5-dihydoxyphenyl / CH═CH / H]
- Hollow Fiber Assay IP score ([1]; Table 10): 2
- Hollow Fiber Assay SC score ([1]; Table 10): 4
- Hollow Fiber Assay Total Ip and SC Score ([1]; Table 10): 6
- IC50 (K562 cells; [4]): 9.72 ± 0.49 µM

Structure (SMILES): CC(C)OC(=O)c1ccc(NCc2cc(O)ccc2O)cc1 [COOCH(CH3)2 / H / H]
- Hollow Fiber Assay IP score [1, 2]: 4
- Hollow Fiber Assay SC score ([1]; Table 8, subcutaneous fibers): 6
- Hollow Fiber Assay Total Ip and SC Score ([1]; Table 8): 10
- IC50 (K562 cells; [3]): 15.1 µM

Structure (SMILES): COC(=O)c1ccc(/C=C/C2=CC(=O)C=CC2=O)cc1 [COOCH3 / 2,5-quinoyl / CH═CH / H]
- Hollow Fiber Assay IP score ([1]; Table 10): 2
- Hollow Fiber Assay SC score ([1]; Table 10): 0
- Hollow Fiber Assay Total Ip and SC Score ([1]; Table 10): 2
- IC50 (K562 cells; [5]): 17.8 ± 0.22 µM

Structure (SMILES): CC(C)OC(=O)c1ccc(CCC2=CC(=O)C(Br)=CC2=O)cc1
- Hollow Fiber Assay IP score ([1]; Table 10): 0 + 0 = 0
- Hollow Fiber Assay SC score ([1]; Table 10): 0 + 0 = 0
- Hollow Fiber Assay Total Ip and SC Score ([1]; Table 10): 0 + 0 = 0
- IC50 (K562 cells; [5]): 59.8 ± 0.44 µM

Structure (SMILES): O=C(OC12CC3CC(CC(C3)C1)C2)c1ccc(NCc2cc(O)ccc2O)cc1 [Compound 6, 4′-adamantylbenzoate-1′-N-2,5-dihydroxybenzylamine]
- Hollow Fiber Assay IP score [1, 2]: 8
- Hollow Fiber Assay SC score ([1]; Table 8, subcutaneous fibers): 8
- Hollow Fiber Assay Total Ip and SC Score ([1]; Table 8): 16
- IP+SC score [1]: 16
- SC score [1]: 8
- IC50 (K562 cells; [3]): 9.75 µM

Structure (SMILES): CC(C)(C)OC(=O)c1ccc(NCc2cc(O)ccc2O)cc1 [COOC(CH3)3 / H / H, 4′-t-butylbenzoate-1′-N-2,5-dihydroxybenzylamine]
- Hollow Fiber Assay IP score [1, 2]: 2
- Hollow Fiber Assay SC score ([1]; Table 8, subcutaneous fibers): 2
- Hollow Fiber Assay Total Ip and SC Score ([1]; Table 8): 4
- IC50 (K562 cells; [3]): 16.4 µM

Structure (SMILES): CC(C)OC(=O)c1ccc(NCc2cc(O)ccc2O)cc1Cl [COOCH(CH3)2 / Cl / H, 5′-chloro-4′-isopropylbenzoate-1′-N-2,5-dihydroxybenzylamine]
- Hollow Fiber Assay IP score [1, 2]: 2
- Hollow Fiber Assay SC score ([1]; Table 8, subcutaneous fibers): 0
- Hollow Fiber Assay Total Ip and SC Score ([1]; Table 8): 2
- IC50 (K562 cells; Table 8, mean+S.E., read-out: IC50 (μM) 6 dMTT): 21.6 µM

Structure (SMILES): O=C(OCc1ccccc1)c1ccc(NCc2cc(O)ccc2O)cc1 [COOCH2Ph / H / H]
- Hollow Fiber Assay IP score [1, 2]: 6
- Hollow Fiber Assay SC score ([1]; Table 8, subcutaneous fibers): 2
- Hollow Fiber Assay Total Ip and SC Score ([1]; Table 8): 8
- IC50 (K562 cells; [3]): 12 µM

Structure (SMILES): CC(C)OC(=O)c1ccc(CCC2=CC(=O)C=CC2=O)cc1 [COOCH(CH3)2 / 2,5-quinoyl / CH2—CH2 / H]
- Hollow Fiber Assay IP score ([1]; Table 10): 0 + 0 = 0
- Hollow Fiber Assay SC score ([1]; Table 10): 0 + 0 = 0
- Hollow Fiber Assay Total Ip and SC Score ([1]; Table 10): 0 + 0 = 0
- IC50 (K562 cells; [5]): 19.9 ± 0.5 µM

Structure (SMILES): COC(=O)c1ccc(CCC2=CC(=O)C(Br)=CC2=O)cc1
- Hollow Fiber Assay IP score ([1]; Table 10): 0 + 0 = 0
- Hollow Fiber Assay SC score ([1]; Table 10): 0 + 0 = 0
- Hollow Fiber Assay Total Ip and SC Score ([1]; Table 10): 0 + 0 = 0
- IC50 (K562 cells; [4]): 36.5 ± 1 µM

Structure (SMILES): COC(=O)c1ccc(CCc2cc(O)c(Br)cc2O)cc1
- Hollow Fiber Assay IP score ([1]; Table 10): 0 + 0 = 0
- Hollow Fiber Assay SC score ([1]; Table 10): 0 + 0 = 0
- Hollow Fiber Assay Total Ip and SC Score ([1]; Table 10): 0 + 0 = 0
- IC50 (K562 cells; [4]): 7 ± 0.5 µM
